A value given as a limit tells only on which side of the number the result lay.

The values below come from patent US20240109917A1 (ACTELION PHARMACEUTICALS LTD, priority 2020, published 2024).

Assay [1] has as its target His6-TEV-PDGFRβ (557-1016) (Homo sapiens (Human), UniProt P09619). In words: PDGFRβ HTRF Assay. The class given is biochemical. To be noted: read-out: PDGFR HTRF IC50. The procedure, abridged:
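HTRF KinEASE-TK readout (665/620 nm ratio) of TK-biotin substrate phosphorylation by His-tagged PDGFRβ kinase domain. Enzyme and inhibitor preincubated 30 min, then ATP/substrate added for 3 h at room temperature before 60 min EDTA quench/detection.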
On the technique in general: TR-FRET usually uses a lanthanide donor and a delayed reading to cut background.

Another assay addresses VEGFR2, unphosphorylated (Homo sapiens (Human), UniProt P35968). The experiment in a line: VEGFR ADP GLO Assay. Format: biochemical. (ADP-Glo first removes unused ATP, then detects ADP through luciferase.)

His6-TEV-PDGFRβ (557-1016), sequence (P09619 557-1016): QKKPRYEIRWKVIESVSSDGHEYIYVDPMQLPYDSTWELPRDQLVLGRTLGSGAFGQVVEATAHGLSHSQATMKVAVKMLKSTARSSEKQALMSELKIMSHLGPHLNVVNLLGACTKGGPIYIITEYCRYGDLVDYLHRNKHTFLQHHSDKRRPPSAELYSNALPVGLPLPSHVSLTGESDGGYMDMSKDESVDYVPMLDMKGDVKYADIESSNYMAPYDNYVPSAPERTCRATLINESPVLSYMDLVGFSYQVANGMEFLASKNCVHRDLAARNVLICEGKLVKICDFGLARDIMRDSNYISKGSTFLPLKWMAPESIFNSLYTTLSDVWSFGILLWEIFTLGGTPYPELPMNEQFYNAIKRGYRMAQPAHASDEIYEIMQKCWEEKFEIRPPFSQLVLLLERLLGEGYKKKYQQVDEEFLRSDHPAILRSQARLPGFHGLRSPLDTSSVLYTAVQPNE
VEGFR2, unphosphorylated, sequence (P35968 20-1356): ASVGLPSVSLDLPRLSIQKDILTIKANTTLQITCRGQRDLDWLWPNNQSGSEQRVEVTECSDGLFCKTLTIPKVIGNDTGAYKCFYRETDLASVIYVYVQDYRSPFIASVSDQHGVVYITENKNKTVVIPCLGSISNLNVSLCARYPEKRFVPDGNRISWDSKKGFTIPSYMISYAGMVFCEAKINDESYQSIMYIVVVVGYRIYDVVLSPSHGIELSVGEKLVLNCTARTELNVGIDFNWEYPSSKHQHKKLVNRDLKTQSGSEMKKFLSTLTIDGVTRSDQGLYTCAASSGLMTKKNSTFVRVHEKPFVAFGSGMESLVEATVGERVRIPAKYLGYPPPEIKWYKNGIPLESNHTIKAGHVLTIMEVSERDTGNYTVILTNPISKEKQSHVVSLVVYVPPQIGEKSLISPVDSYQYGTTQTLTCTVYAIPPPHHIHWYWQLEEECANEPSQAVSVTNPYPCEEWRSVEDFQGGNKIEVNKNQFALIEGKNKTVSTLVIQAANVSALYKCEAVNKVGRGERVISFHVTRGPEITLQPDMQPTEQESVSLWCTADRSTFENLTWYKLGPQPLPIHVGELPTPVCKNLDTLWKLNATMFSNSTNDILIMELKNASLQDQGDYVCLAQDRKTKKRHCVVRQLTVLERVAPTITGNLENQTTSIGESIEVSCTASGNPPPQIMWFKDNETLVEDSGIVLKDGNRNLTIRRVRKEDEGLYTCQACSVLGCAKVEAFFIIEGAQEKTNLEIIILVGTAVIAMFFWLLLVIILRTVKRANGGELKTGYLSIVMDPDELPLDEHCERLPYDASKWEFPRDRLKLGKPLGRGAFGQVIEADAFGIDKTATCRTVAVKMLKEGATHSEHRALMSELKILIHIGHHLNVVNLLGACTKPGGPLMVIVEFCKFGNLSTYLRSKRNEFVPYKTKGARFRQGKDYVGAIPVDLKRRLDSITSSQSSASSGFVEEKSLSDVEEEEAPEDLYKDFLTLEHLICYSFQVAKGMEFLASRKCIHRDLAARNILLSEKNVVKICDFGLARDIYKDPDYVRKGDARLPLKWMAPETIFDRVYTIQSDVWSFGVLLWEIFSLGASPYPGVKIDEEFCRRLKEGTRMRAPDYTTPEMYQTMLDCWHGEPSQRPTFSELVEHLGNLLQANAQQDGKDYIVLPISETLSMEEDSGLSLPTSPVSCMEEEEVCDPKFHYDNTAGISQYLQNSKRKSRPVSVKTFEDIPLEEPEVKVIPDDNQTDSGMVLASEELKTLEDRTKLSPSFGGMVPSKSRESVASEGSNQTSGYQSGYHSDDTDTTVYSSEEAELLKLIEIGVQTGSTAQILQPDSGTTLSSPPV

For orientation: IC50 means the point on the concentration scale where inhibition reaches its midpoint. In the case of `Cc1ncc(C(=O)NCCN2CCC3(CC3)C2)cc1NC(=O)c1cnn2cc(-c3cnn(C)c3C)sc12` [Example 170, N-(5-((2-(5-azaspiro[2.4]heptan-5-yl)ethyl)carbamoyl)-2-methylpyridin-3-yl)-2-(1,5-dimethyl-1H-pyrazol-4-yl)pyrazolo[5,1-b]thiazole-7-carboxamide], the IC50 is 0.3 nM in assay [1] and above 7500 nM at VEGFR2, unphosphorylated.
In the same order, the values of `Cc1ncc(C(=O)NCCN2CC3CCC2CC3)cc1NC(=O)c1cnn2cc(-c3cnn(C)c3C)sc12` [Example 171, N-(5-((2-(2-azabicyclo[2.2.2]octan-2-yl)ethyl)carbamoyl)-2-methylpyridin-3-yl)-2-(1,5-dimethyl-1H-pyrazol-4-yl)pyrazolo[5,1-b]thiazole-7-carboxamide] are 0.3 nM and above 7500 nM.
In the same order, the values of `Cc1ncc(C(=O)NCCN2C3CCC2CC3)cc1NC(=O)c1cnn2cc(-c3cnn(C)c3C)sc12` [Example 172, N-(5-((2-(7-azabicyclo[2.2.1]heptan-7-yl)ethyl)carbamoyl)-2-methylpyridin-3-yl)-2-(1,5-dimethyl-1H-pyrazol-4-yl)pyrazolo[5,1-b]thiazole-7-carboxamide] are 0.3 nM and above 7500 nM.
In the same order, the values of `Cc1ncc(C(=O)NCCN2CCCC2(C)C)cc1NC(=O)c1cnn2cc(-c3cnn(C)c3C)sc12` [Example 173, 2-(1,5-dimethyl-1H-pyrazol-4-yl)-N-(5-((2-(2,2-dimethylpyrrolidin-1-yl)ethyl)carbamoyl)-2-methylpyridin-3-yl)pyrazolo[5,1-b]thiazole-7-carboxamide] are 0.3 nM and above 7500 nM.
With `Cc1ncc(C(=O)NCCN2CCCC2(C)C)cc1NC(=O)c1cnn2cc(-c3cn(C)nc3C)sc12` [Example 174, 2-(1,3-dimethyl-1H-pyrazol-4-yl)-N-(5-((2-(2,2-dimethylpyrrolidin-1-yl)ethyl)carbamoyl)-2-methylpyridin-3-yl)pyrazolo[5,1-b]thiazole-7-carboxamide], the concentration for half-maximal inhibition (IC50) in assay [1] was 0.3 nM; against VEGFR2, unphosphorylated, above 7500 nM.
In the same order, the values of `Cc1ncc(C(=O)NCCN2CCC23CCC3)cc1NC(=O)c1cnn2cc(-c3cn(C)nc3C)sc12` [Example 175, N-(5-((2-(1-azaspiro[3.3]heptan-1-yl)ethyl)carbamoyl)-2-methylpyridin-3-yl)-2-(1,3-dimethyl-1H-pyrazol-4-yl)pyrazolo[5,1-b]thiazole-7-carboxamide] are 0.5 nM and above 7500 nM.
In the same order, the values of `Cc1ncc(C(=O)NCCN2CCCC23COC3)cc1NC(=O)c1cnn2cc(-c3cn(C)nc3C)sc12` [Example 176, N-(5-((2-(2-oxa-5-azaspiro[3.4]octan-5-yl)ethyl)carbamoyl)-2-methylpyridin-3-yl)-2-(1,3-dimethyl-1H-pyrazol-4-yl)pyrazolo[5,1-b]thiazole-7-carboxamide] are 0.5 nM and above 7500 nM.
For `Cc1ncc(C(=O)NCCN2CCC3(CC3)C2)cc1NC(=O)c1cnn2cc(-c3cn(C)nc3C)sc12` [Example 177, N-(5-((2-(5-azaspiro[2.4]heptan-5-yl)ethyl)carbamoyl)-2-methylpyridin-3-yl)-2-(1,3-dimethyl-1H-pyrazol-4-yl)pyrazolo[5,1-b]thiazole-7-carboxamide], in that order: 0.3 nM and above 7500 nM.
In the case of `Cc1ncc(C(=O)NCCN2CC3CCC2CC3)cc1NC(=O)c1cnn2cc(-c3cn(C)nc3C)sc12` [Example 178, N-(5-((2-(2-azabicyclo[2.2.2]octan-2-yl)ethyl)carbamoyl)-2-methylpyridin-3-yl)-2-(1,3-dimethyl-1H-pyrazol-4-yl)pyrazolo[5,1-b]thiazole-7-carboxamide], the IC50 was 0.2 nM in assay [1] and above 7500 nM on VEGFR2, unphosphorylated.
`Cc1ncc(C(=O)NCCN2CCCC23COC3)cc1NC(=O)c1cnn2cc(-c3c(C)nn(C)c3C)sc12` [Example 179, N-(5-((2-(2-oxa-5-azaspiro[3.4]octan-5-yl)ethyl)carbamoyl)-2-methylpyridin-3-yl)-2-(1,3,5-trimethyl-1H-pyrazol-4-yl)pyrazolo[5,1-b]thiazole-7-carboxamide]: the 50% inhibitory concentration (IC50) in assay [1] was 1 nM; at VEGFR2, unphosphorylated it was above 7500 nM.
